The source of these data is paper PMC12724303 (Journal of Virology, 2025).

Data set [1] relates to Vero E6/TMPRSS2 cells. The format is cell-based. The procedure: A solution of each CyD derivative, prepared in DMEM supplemented with 10% FBS and 1 mg/mL G-418, was filtered and sterilized using a DISMIC-25cs 0.45 µm filter. […] After 24 h, the cells were treated with CyD derivatives and further incubated for 72 h in a humidified incubator at 37°C with 5% CO₂. Cytotoxicity was assessed under a microscope.

Data set [2] has as its system JEV Beijing-1 variant (procoagulant activity). The format is biochemical, Japanese encephalitis virus.
In data set [3] the target is SARS-CoV-2 spike protein-ACE2 binding (UniProt P0DTC2+Q9BYF1).
For data set [4], the system named is Vero E6/TMPRSS2 cells. The conditions noted are these: CCK-8, tested up to 100 mM.
Another data set concerns Vero cells. In kind it is cell-based. The conditions noted are these: CCK-8, tested up to 100 mM.
The test system of a further data set is red blood cells. The conditions noted are these: cited from earlier work.
Another data set can be described thus: in vitro. The conditions noted are these: African green monkey.
The subject of the next data set is Pichinde virus. The conditions noted are these: guinea pigs infected with Pichinde virus, treated 6-7 days after infection; cited from earlier work.
The mark [5] stands for this setting: Vero E6/TMPRSS2 cells, 72 h, microscope, twofold dilutions with 10 mM as highest concentration.

Read-outs that look alike come from different tables or passages of the source. Some results are limits rather than exact numbers.

Sequence of SARS-CoV-2 spike protein-ACE2 binding (Q9BYF1 18-740, one chain of several): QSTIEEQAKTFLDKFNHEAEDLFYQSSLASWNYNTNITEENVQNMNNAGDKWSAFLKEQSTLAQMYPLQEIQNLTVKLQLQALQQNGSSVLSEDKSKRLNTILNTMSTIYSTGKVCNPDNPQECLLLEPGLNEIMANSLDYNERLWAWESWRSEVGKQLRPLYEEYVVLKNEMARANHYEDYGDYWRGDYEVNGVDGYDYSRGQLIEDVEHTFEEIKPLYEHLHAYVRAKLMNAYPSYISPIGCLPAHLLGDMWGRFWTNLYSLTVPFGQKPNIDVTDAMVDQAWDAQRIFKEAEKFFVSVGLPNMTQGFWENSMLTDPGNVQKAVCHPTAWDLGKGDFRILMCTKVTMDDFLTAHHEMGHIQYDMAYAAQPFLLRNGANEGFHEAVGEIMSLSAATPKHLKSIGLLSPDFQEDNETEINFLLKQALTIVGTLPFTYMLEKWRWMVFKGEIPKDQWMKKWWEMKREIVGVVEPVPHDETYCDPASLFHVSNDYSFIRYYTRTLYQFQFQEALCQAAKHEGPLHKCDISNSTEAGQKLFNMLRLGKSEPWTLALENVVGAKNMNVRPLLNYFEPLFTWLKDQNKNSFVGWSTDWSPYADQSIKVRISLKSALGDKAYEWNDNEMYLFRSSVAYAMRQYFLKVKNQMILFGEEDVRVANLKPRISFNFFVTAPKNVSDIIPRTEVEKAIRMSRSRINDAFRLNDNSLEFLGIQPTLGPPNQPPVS

For the molecule `OC[C@H]1O[C@@H]2O[C@H]3[C@H](O)[C@@H](O)[C@@H](O[C@H]4[C@H](O)[C@@H](O)[C@@H](O[C@H]5[C@H](O)[C@@H](O)[C@@H](O[C@H]6[C@H](O)[C@@H](O)[C@@H](O[C@H]7[C@H](O)[C@@H](O)[C@@H](O[C@H]8[C@H](O)[C@@H](O)[C@@H](O[C@H]1[C@H](O)[C@H]2O)O[C@@H]8CO)O[C@@H]7CO)O[C@@H]6CO)O[C@@H]5CO)O[C@@H]4CO)O[C@@H]3CO` [β-CyD], in the data set with Vero E6/TMPRSS2 cells [1] (setting [5]), the Highest non-toxic concentration was ≥10.0 mM.

For the molecule `COC[C@H]1O[C@@H]2O[C@H]3[C@H](OC(C)=O)[C@@H](OC)[C@@H](O[C@H]4[C@H](OC(C)=O)[C@@H](OC)[C@@H](O[C@H]5[C@H](OC(C)=O)[C@@H](OC)[C@@H](O[C@H]6[C@H](OC(C)=O)[C@@H](OC)[C@@H](O[C@H]7[C@H](OC(C)=O)[C@@H](OC)[C@@H](O[C@H]8[C@H](OC(C)=O)[C@@H](OC)[C@@H](O[C@H]1[C@H](OC(C)=O)[C@H]2OC)O[C@@H]8COC)O[C@@H]7COC)O[C@@H]6COC)O[C@@H]5COC)O[C@@H]4COC)O[C@@H]3COC` [DMA-β-CyD], the “effect on clotting time (JEV procoagulant activity)” value in data set [2] (10 mM, 28°C) is recorded as “clotting time remained similar to that of the control”; in data set [2] (10 mM, 37°C) it was “prolonged”. Moreover, in data set [3], the “effect on spike protein-ACE2 binding” value is on record as “did not interfere with this interaction”. The CC50 with Vero E6/TMPRSS2 cells [4] and in the data set with Vero cells was ≥ 100 mM each time. Further, the hemolysis result with red blood cells (at 100 mM) is recorded as “did not induce hemolysis”.

In the case of `OC[C@H]1O[C@@H]2O[C@H]3[C@H](O)[C@@H](O)[C@@H](O[C@H]4[C@H](O)[C@@H](O)[C@@H](O[C@H]5[C@H](O)[C@@H](O)[C@@H](O[C@H]6[C@H](O)[C@@H](O)[C@@H](O[C@H]7[C@H](O)[C@@H](O)[C@@H](O[C@H]8[C@H](O)[C@@H](O)[C@@H](O[C@H]9[C@H](O)[C@@H](O)[C@@H](O[C@H]1[C@H](O)[C@H]2O)O[C@@H]9CO)O[C@@H]8CO)O[C@@H]7CO)O[C@@H]6CO)O[C@@H]5CO)O[C@@H]4CO)O[C@@H]3CO` [γ-CyD], the Highest non-toxic concentration in the data set with Vero E6/TMPRSS2 cells [1] (setting [5]) was 2.50 mM.

As for `COC[C@H]1O[C@@H]2O[C@H]3[C@H](O)[C@@H](OC)[C@@H](O[C@H]4[C@H](O)[C@@H](OC)[C@@H](O[C@H]5[C@H](O)[C@@H](OC)[C@@H](O[C@H]6[C@H](O)[C@@H](OC)[C@@H](O[C@H]7[C@H](O)[C@@H](OC)[C@@H](O[C@H]1[C@H](O)[C@H]2OC)O[C@@H]7COC)O[C@@H]6COC)O[C@@H]5COC)O[C@@H]4COC)O[C@@H]3COC` [DM-α-CyD], the Highest non-toxic concentration with Vero E6/TMPRSS2 cells [1] (setting [5]) came to 2.50 mM.

Take `COC[C@H]1O[C@@H]2O[C@H]3[C@H](OC)[C@@H](OC)[C@@H](O[C@H]4[C@H](OC)[C@@H](OC)[C@@H](O[C@H]5[C@H](OC)[C@@H](OC)[C@@H](O[C@H]6[C@H](OC)[C@@H](OC)[C@@H](O[C@H]7[C@H](OC)[C@@H](OC)[C@@H](O[C@H]8[C@H](OC)[C@@H](OC)[C@@H](O[C@H]1[C@H](OC)[C@H]2OC)O[C@@H]8COC)O[C@@H]7COC)O[C@@H]6COC)O[C@@H]5COC)O[C@@H]4COC)O[C@@H]3COC` [TM-β-CyD]: the Highest non-toxic concentration with Vero E6/TMPRSS2 cells [1] (setting [5]) is reported as 1.25 mM.

`OC[C@H]1O[C@@H]2O[C@H]3[C@H](O)[C@@H](O)[C@@H](O[C@H]4[C@H](O)[C@@H](O)[C@@H](O[C@H]5[C@H](O)[C@@H](O)[C@@H](O[C@H]6[C@H](O)[C@@H](O)[C@@H](O[C@H]7[C@H](O)[C@@H](O)[C@@H](O[C@H]1[C@H](O)[C@H]2O)O[C@@H]7CO)O[C@@H]6CO)O[C@@H]5CO)O[C@@H]4CO)O[C@@H]3CO` [α-CyD] registered a Highest non-toxic concentration in the data set on Vero E6/TMPRSS2 cells [1] (setting [5]) of 5.00 mM.

On to hydroxypropyl-α-cyclodextrin [HP-α-CyD], for which the Highest non-toxic concentration with Vero E6/TMPRSS2 cells [1] (setting [5]) is given as ≥10.0 mM.

With `COC[C@H]1O[C@@H]2O[C@H]3[C@H](O)[C@@H](OC)[C@@H](O[C@H]4[C@H](O)[C@@H](OC)[C@@H](O[C@H]5[C@H](O)[C@@H](OC)[C@@H](O[C@H]6[C@H](O)[C@@H](OC)[C@@H](O[C@H]7[C@H](O)[C@@H](OC)[C@@H](O[C@H]8[C@H](O)[C@@H](OC)[C@@H](O[C@H]1[C@H](O)[C@H]2OC)O[C@@H]8COC)O[C@@H]7COC)O[C@@H]6COC)O[C@@H]5COC)O[C@@H]4COC)O[C@@H]3COC` [DM-β-CyD, 2,6-di-O-methyl-β-cyclodextrin], in data set [2] (5 mM, 37°C), the “effect on clotting time (JEV procoagulant activity)” value is recorded as “had no effect”. This molecule also showed a CC50 in “in vitro” of 5.74 mM. The “concentration causing 50% hemolysis” value with red blood cells is 1000 µM. The molecule also yielded a Highest non-toxic concentration in the data set with Vero E6/TMPRSS2 cells [1] (African green monkey) of 5.00 mM.

B1: bavituximab (antibody, chains of the INN, looked up, V domains shown)
VH: EVQLQQSGPELEKPGASVKLSCKASGYSFTGYNMNWVKQSHGKSLEWIGHIDPYYGDTSYNQKFRGKATLTVDKSSSTAYMQLKSLTSEDSAVYYCVKGGYYGHWYFDVWGAGTTVTVSS
VL: DIQMTQSPSSLSASLGERVSLTCRASQDIGSSLNWLQQGPDGTIKRLIYATSSLDSGVPKRFSGSRSGSDYSLTISSLESEDFVDYYCLQYVSSPPTFGAGTKLELK
Regarding B1, the animals survived with Pichinde virus is 50%.
